The text below walks through data of publication PMC2915818 (2010).

Assay [1] deals with 24bcl (DNA, G4) CGGGCGCGGGAGGAAGGGGGCGGG
Put plainly: competitive dialysis. The settings on record: 185 mM KCl, 185 mM NaCl; sodium phosphate, 1 mM EDTA, pH 7, room temperature; 50 μM DNA, 1 μM compound.

The test system of assay [2] is Ds26 (DNA, duplex) CAATCGGATCGAATTCGATCCGATTG
Briefly: competitive dialysis. The settings on record: 185 mM KCl, 185 mM NaCl; sodium phosphate, 1 mM EDTA, pH 7, room temperature; 50 μM DNA, 1 μM compound.

The test system of assay [3] is cmyc (DNA, G4) GGGGAGGGTGGGGAGGGTGGGGAAGGTGGGG
Briefly: competitive dialysis. The settings on record: 185 mM KCl, 185 mM NaCl; sodium phosphate, 1 mM EDTA, pH 7, room temperature; 50 μM DNA, 1 μM compound.

Assay [4] concerns 24bcl (DNA, G4) CGGGCGCGGGAGGAAGGGGGCGGG
Put plainly: fluorescence titration, Equispec fit. The settings on record: 185 mM K+, 185 mM Na+ (as KCl, NaCl); sodium phosphate, 1 mM EDTA, pH 7, 25 °C; excitation 252 nm; 0.2 μM compound.

In assay [5] the test system is cmyc (DNA, G4) GGGGAGGGTGGGGAGGGTGGGGAAGGTGGGG
Put plainly: fluorescence titration, Equispec fit. The settings on record: 185 mM K+, 185 mM Na+ (as KCl, NaCl); sodium phosphate, 1 mM EDTA, pH 7, 25 °C; excitation 252 nm; 0.2 μM compound.

The subject of assay [6] is HT24 (DNA, G4) TAGGGTTAGGGTTAGGGTTAGGGT
Put plainly: fluorescence titration, Equispec fit. The settings on record: 185 mM K+, 185 mM Na+ (as KCl, NaCl); sodium phosphate, 1 mM EDTA, pH 7, 25 °C; excitation 252 nm; 0.2 μM compound.

Assay [7] concerns Dickerson (DNA, duplex) CGCGAATTCGCG
Put plainly: fluorescence titration. The settings on record: 185 mM K+, 185 mM Na+ (as KCl, NaCl); sodium phosphate, 1 mM EDTA, pH 7, 25 °C; up to 10 μM DNA, 0.2 μM compound.

For assay [8], the system named is TC triplex (DNA, triplex) CCTCCTCTCTTTCCCTTTTTCTTTCTCTCCTCC/GAAAGAGAGGAGG
Briefly: competitive dialysis. The settings on record: 185 mM KCl, 185 mM NaCl; sodium phosphate, 1 mM EDTA, pH 7, room temperature; 50 μM DNA, 1 μM compound.

For the compound `O=C(O)CNC(=O)c1c2ccccc2nc2ccccc12`, the results for the binding result in assay [1], in assay [2] and in assay [3] were “yes”, “weak” and “yes”, respectively.
`CC(=O)NCCN(CC(=O)NCCN(CC(=O)NCCN(CC(=O)NCCCCCCOC(=O)CCC(=O)N(C)CC(N)=O)C(=O)CNC(=O)c1c2ccccc2nc2ccccc12)C(=O)CNC(=O)c1c2ccccc2nc2ccccc12)C(=O)CNC(=O)c1c2ccccc2nc2ccccc12`: the “log K” value in assay [4] was determined as 5.3 ± 0.2; in assay [5], 4.8 ± 0.5; in assay [6], 5.3 ± 0.3.
`O=C(O)c1c2ccccc2nc2ccccc12`: the binding entry in assay [2] is recorded as “yes”.
Consider `CC(=O)NCCN(CC(=O)NCCN(CC(=O)NCCCCCCOC(=O)CCC(=O)N(C)CC(N)=O)C(=O)CNC(=O)c1c2ccccc2nc2ccccc12)C(=O)CNC(=O)c1c2ccccc2nc2ccccc12`, for which the binding entry is recorded as “no” in assay [7], “weak” in assay [8] and “no” in assay [2]. The “log K” value in assay [4] was found to be 6.8 ± 0.5; in assay [5] it was 5.5 ± 0.3; in assay [6] it was 4.9 ± 0.4.
For `CC(=O)NCCN(CC(=O)NCCN(CC(=O)NCCN(CC(=O)NCCCCCCO)C(=O)CNC(=O)c1c2ccccc2nc2ccccc12)C(=O)CNC(=O)c1c2ccccc2nc2ccccc12)C(=O)CNC(=O)c1c2ccccc2nc2ccccc12`, the binding result in assay [1] is listed as “yes”. For the same compound, the “log K” value in assay [5] was determined as 5.3 ± 0.2.
Turning to `CC(=O)NCCN(CC(=O)NCCN(CC(=O)NCCCCCCO)C(=O)CNC(=O)c1c2ccccc2nc2ccccc12)C(=O)CNC(=O)c1c2ccccc2nc2ccccc12`, the “log K” value in assay [4] is reported as 5.1 ± 0.1; in assay [5], 4.9 ± 0.2; in assay [6], 4.6 ± 0.5.
